According to ChEMBL document CHEMBL4393738, “Design of hybrid molecules as antimycobacterial compounds: Synthesis of isoniazid-naphthoquinone derivatives and their activity against susceptible and resistant strains of Mycobacterium tuberculosis” (Bioorg Med Chem, 2019):
Converted amounts (≈) assume the structure as drawn.

Experiments:
Format in all cases: functional
[1] = test system: Mycobacterium tuberculosis; experiment: Antimycobacterial activity against isoniazid resistant Mycobacterium tuberculosis ATCC 35822 after 7 days by resazurin microtiter assay; details: ATCC 35822, 168 h
[2] = test system: Mycobacterium tuberculosis; experiment: Antimycobacterial activity against isoniazid resistant Mycobacterium tuberculosis H37Rv ATCC 27294 measured after 7 days by resazurin microtiter assay; details: H37Rv ATCC 27294, 168 h
[3] = test system: Mycobacterium tuberculosis; experiment: Antimycobacterial activity against isoniazid resistant Mycobacterium tuberculosis measured after 7 days by resazurin microtiter assay; details: 168 h

CC1(C)OC2=C(CC1Br)C(=O)/C(=N\NC(=O)c1ccncc1)c1ccccc12 (stereo not drawn)
MIC [1]: 12.5 µg/mL (≈ 28.4 µM) | MIC [2]: 12.5 µg/mL (≈ 28.4 µM) | MIC [3]: 12.5 µg/mL (≈ 28.4 µM)

O=C1C(=O)c2ccccc2C2=C1CC(Cn1cc(-c3ccccc3)nn1)O2 (stereo not drawn)
MIC [1]: 25 µg/mL (≈ 70 µM) | MIC [2]: 12.5 µg/mL (≈ 35 µM) | MIC [3]: 25 µg/mL (≈ 70 µM)

CO[C@H]1/C=C/O[C@@]2(C)Oc3c(C)c(O)c4c(O)c(c(/C=N/N5CCN(C)CC5)c(O)c4c3C2=O)NC(=O)/C(C)=C\C=C\[C@H](C)[C@H](O)[C@@H](C)[C@@H](O)[C@@H](C)[C@H](OC(C)=O)[C@@H]1C [RIFAMPIN]
MIC [1]: ≤ 0.03 µg/mL | MIC [2]: ≤ 0.03 µg/mL | MIC [3]: > 8 µg/mL

CC1(C)OC2=C(C(=O)/C(=N\NC(=O)c3ccncc3)c3ccccc32)C1n1cc(-c2ccccc2)nn1 (stereo not drawn)
MIC [1]: 12.5 µg/mL (≈ 25.5 µM) | MIC [2]: 12.5 µg/mL (≈ 25.5 µM) | MIC [3]: 12.5 µg/mL (≈ 25.5 µM)

O=C1C2=C(OC(Cn3cc(-c4ccccc4)nn3)C2)c2ccccc2/C1=N/NC(=O)c1ccncc1 (stereo not drawn)
MIC [1]: 50 µg/mL (≈ 105 µM) | MIC [2]: 12.5 µg/mL (≈ 26.2 µM) | MIC [3]: 50 µg/mL (≈ 105 µM)

CC1(C)CC2=C(O1)c1ccccc1C(=O)C2=O [NOR-BETA-LAPACHONE]
MIC [1]: 12.5 µg/mL (≈ 54.8 µM) | MIC [2]: 3.12 µg/mL (≈ 13.7 µM) | MIC [3]: 6.25 µg/mL (≈ 27.4 µM)

CC1(C)OC2=C(C(=O)C(=O)c3ccccc32)C1O (stereo not drawn)
MIC [1]: 25 µg/mL (≈ 102 µM) | MIC [2]: 12.5 µg/mL (≈ 51.2 µM) | MIC [3]: 25 µg/mL (≈ 102 µM)

CC1(C)OC2=C(CC1I)C(=O)/C(=N\NC(=O)c1ccncc1)c1ccccc12 (stereo not drawn)
MIC [1]: 100 µg/mL (≈ 205 µM) | MIC [2]: 100 µg/mL (≈ 205 µM) | MIC [3]: 100 µg/mL (≈ 205 µM)

CC1(C)OC2=C(C(=O)/C(=N\NC(=O)c3ccncc3)c3ccccc32)C1Nc1ccccc1 (stereo not drawn)
MIC [1]: 100 µg/mL (≈ 228 µM) | MIC [2]: 25 µg/mL (≈ 57 µM) | MIC [3]: 25 µg/mL (≈ 57 µM)

CC1(C)CCC2=C(O1)/C(=N\NC(=O)c1ccncc1)c1ccccc1C2=O
MIC [1]: > 200 µg/mL | MIC [2]: > 200 µg/mL | MIC [3]: > 200 µg/mL

CC1(C)CC2=C(O1)/C(=N\NC(=O)c1ccncc1)c1ccccc1C2=O
MIC [1]: 100 µg/mL (≈ 288 µM) | MIC [2]: 25 µg/mL (≈ 72 µM) | MIC [3]: 200 µg/mL (≈ 576 µM)

CC1(C)CCC2=C(O1)C(=O)c1ccccc1C2=O [ALPHA-LAPACHONE]
MIC [2]: 103 µg/mL (≈ 426 µM)

CC1(C)CCC2=C(O1)c1ccccc1/C(=N/NC(=O)c1ccncc1)C2=O
MIC [1]: 50 µg/mL (≈ 138 µM) | MIC [2]: 0.78 µg/mL (≈ 2.16 µM) | MIC [3]: 6.25 µg/mL (≈ 17.3 µM)

CC1(C)CCC2=C(O1)c1ccccc1C(=O)C2=O [LAPACHONE]
MIC [1]: 3.12 µg/mL (≈ 12.9 µM) | MIC [2]: 1.56 to 6.25 µg/mL (≈ 6.44 to 25.8 µM) | MIC [3]: 6.25 µg/mL (≈ 25.8 µM)

NNC(=O)c1ccncc1 [ISONIAZID]
MIC [1]: 2 µg/mL (≈ 14.6 µM) | MIC [2]: 0.03 µg/mL (≈ 0.219 µM) | MIC [3]: 0.25 µg/mL (≈ 1.82 µM)

CC1(C)OC2=C(C(=O)C(=O)c3ccccc32)[C@H](n2cc(-c3ccccc3)nn2)[C@H]1Br (racemic)
MIC [1]: 6.25 µg/mL (≈ 13.5 µM) | MIC [2]: 1.56 µg/mL (≈ 3.36 µM) | MIC [3]: 12.5 µg/mL (≈ 26.9 µM)

CC1(C)CC2=C(O1)C(=O)c1ccccc1C2=O
MIC [1]: 25 µg/mL (≈ 110 µM) | MIC [2]: 12.5 µg/mL (≈ 54.8 µM) | MIC [3]: 25 µg/mL (≈ 110 µM)

CC1(C)CC2=C(O1)c1ccccc1/C(=N/NC(=O)c1ccncc1)C2=O
MIC [1]: 50 µg/mL (≈ 144 µM) | MIC [2]: 0.78 µg/mL (≈ 2.25 µM) | MIC [3]: 6.25 µg/mL (≈ 18 µM)

CC1(C)OC2=C(C(=O)/C(=N\NC(=O)c3ccncc3)c3ccccc32)[C@H](n2cc(-c3ccccc3)nn2)[C@H]1Br
MIC [1]: 200 µg/mL (≈ 343 µM) | MIC [2]: 200 µg/mL (≈ 343 µM) | MIC [3]: > 200 µg/mL

CC1(C)OC2=C(CC1I)C(=O)C(=O)c1ccccc12 (stereo not drawn)
MIC [1]: 3.12 µg/mL (≈ 8.47 µM) | MIC [2]: 3.12 µg/mL (≈ 8.47 µM) | MIC [3]: 6.25 µg/mL (≈ 17 µM)

CC1(C)OC2=C(CC1Br)C(=O)C(=O)c1ccccc12 (stereo not drawn)
MIC [1]: 6.25 µg/mL (≈ 19.5 µM) | MIC [2]: 6.25 µg/mL (≈ 19.5 µM) | MIC [3]: 3.12 µg/mL (≈ 9.71 µM)

CC1(C)OC2=C(C(=O)/C(=N\NC(=O)c3ccncc3)c3ccccc32)C1O (stereo not drawn)
MIC [1]: 200 µg/mL (≈ 550 µM) | MIC [2]: 6.25 µg/mL (≈ 17.2 µM) | MIC [3]: 100 µg/mL (≈ 275 µM)

CC1(C)OC2=C(C(=O)C(=O)c3ccccc32)C1Nc1ccccc1 (stereo not drawn)
MIC [1]: 3.12 µg/mL (≈ 9.77 µM) | MIC [2]: 3.12 µg/mL (≈ 9.77 µM) | MIC [3]: 6.25 µg/mL (≈ 19.6 µM)

CC1CC2=C(O1)c1ccccc1/C(=N/NC(=O)c1ccncc1)C2=O (stereo not drawn)
MIC [1]: 12.5 µg/mL (≈ 37.5 µM) | MIC [2]: 12.5 µg/mL (≈ 37.5 µM) | MIC [3]: 25 µg/mL (≈ 75 µM)

CC1(C)OC2=C(C(=O)C(=O)c3ccccc32)C1n1cc(-c2ccccc2)nn1 (stereo not drawn)
MIC [1]: 25 µg/mL (≈ 67.3 µM) | MIC [2]: 6.25 µg/mL (≈ 16.8 µM) | MIC [3]: 25 µg/mL (≈ 67.3 µM)
